Laboratory results taken from patent publication US10813891B2, “Method of inhibiting chronification of pain” (priority 2011, dated 2020).
Entries after “also recorded” stand apart in the source; their conditions may differ. Like-named read-outs stand apart in the source and are kept apart here.

Experiments:
[1] = tested on: CCI-ION rats; conditions: cited from earlier work
[2] = tested on: CCI-SN rats; conditions: rat, in vivo; cited from earlier work
[3] = tested on: CCI-ION rats; type: in vivo, rat; conditions: rat, in vivo
Method: (§1) Male Sprague-Dawley rats (Charles River Laboratories, L'Arbresle, France), weighing 150-200 g on arrival, were used. Animals were maintained under controlled environmental conditions (22±1° C., 60% relative humidity, 12 h/12 h light/dark cycle, food and water ad libitum) starting from reception in the laboratory, for at least 1 week before any intervention or treatment and thereafter, until euthanasia.
Rats were anaesthetized with sodium pentobarbital (50 mg/kg i.p.). Unilateral CCI-ION was performed under direct visual control using a Zeiss microscope (10-25×). Briefly, the head was fixed in a Horsley-Clarke stereotaxic frame and a midline scalp incision was made, exposing skull and nasal bone. The edge of the orbit, formed by the maxillary, frontal, lacrimal, and zygomatic bones, was dissected free. The orbital contents were then gently deflected to give access to the infraorbital nerve which was dissected free at its most rostral extent in the orbital cavity, just caudal to the infraorbital foramen. Only 5 mm of the nerve could be freed, providing the space for placement of two chromic catgut (5-0) ligations tied loosely (with about 2 mm spacing) around it. […] Finally, scalp incision was closed using silk sutures (4-0). In sham-operated rats, the ION was exposed using the same procedure, but was not ligated.
(§2) Tapentadol (1, 3 and 10 mg/kg i.p.), reboxetine (10 mg/kg i.p.), morphine (1 and 3 mg/kg s.c.) or their vehicle (0.9% NaCl) were injected acutely 14 days after surgery, when allodynia/hyperalgesia reached a plateau in both CCI-SN and CCI-ION rats. Behavioral tests were performed at various times for up to 4 h after injection. In drug association procedure, reboxetine or saline was administered 15 min before morphine or saline.
(§3) Subchronic treatment consisted of twice daily injections of tapentadol (10 mg/kg, i.p. at 10:00 am and 6:00 pm) or saline for 4 days starting on the 15th day after nerve ligation in both CCI-ION and CCI-SN rats. Animals were further injected with tapentadol (10 mg/kg i.p.) or saline at 10:00 am the following day (19th day post-surgery), and assessment of allodynia with von Frey filament tests (see below) was made at various times up to 4 hours after this injection. All rats were killed by decapitation 4 hours after the last injection for real-time qRT-PCR determinations of specific mRNAs in ganglia and central tissues (see below).
Rats were placed individually in small (35×20×15 cm) plastic cages for a 2 h habituation period. Before any stimulation session, rats freely explored the observation cage and the testing environments for 2 h. Then mechanical sensitivity was determined with a graded series of […] von Frey filaments (Bioseb, Bordeaux, France). The filaments produced a bending force of 0.40, 0.60, 1.00, 2.00, 4.00, 6.00, 8.00, 10.00 and 12.00 g, respectively. The stimuli were applied within the ION territory (vibrissae pad) three times on the nerve-injured side and then on the contralateral side for a total of 6 applications of each filament per rat, always beginning with the filament producing the lowest force. The von Frey filaments were applied at least 3 seconds after the rat had returned to its initial resting state. For each session, the complete series of von Frey filaments was tested in increasing force order. […] The latter responses represented the highest scores in the rank-ordered response scoring system initially described by Vos et al. (1994). Under our own conditions, the mechanical response threshold was determined as the minimal force filament causing at least one among these responses to at least 2 out of the 3 applications in vibrissae territory. […] To avoid nonspecific responses, only these rats were included in the study.

[4] = tested on: mice hindpaw after incision; conditions: mouse, in vivo; cited from earlier work
[5] = tested on: CCI-SN rats; type: in vivo, rat; conditions: rat, in vivo
Method: as §1
Rats were anaesthetized as above and the common sciatic nerve was exposed. Using a dissection microscope (2× magnification), four chromic catgut (5-0) ligations were tied loosely with about 1 mm spacing, proximally to the sciatic trifurcation (Bennett and Xie, 1988). Finally, the skin and muscle were sewed using silk sutures (4-0). In sham-operated animals, the same surgery was performed, but the nerve was not ligated.
as §2, §3
Before testing, each rat was habituated for 2 h as above, and mechanical sensitivity was then determined with a graded series of […] von Frey filaments, that produced a bending force of 6, 8, 10, 12, 15, 26, and 60 g, respectively. The stimuli were applied within the SN territory (lateral part of the hind paw sole). Each filament was tested three times on the nerve-injured side in increasing order starting with the filament producing the lowest force. As for the CCI-ION rats, the von Frey filaments were applied at least 3 seconds after the rat had returned to its initial resting state. The minimal force filament for which animals presented either a brisk paw withdrawal and/or an escape attempt in response to at least 2 out of the 3 stimulations allowed determination of the mechanical response threshold. The 60.00 g filament was chosen as the cutoff threshold to inhibit any tissue injury.
A—Two weeks after unilateral chronic constriction injury to the sciatic nerve, pressure threshold values (as g) to trigger nocifensive responses to von Frey filaments application onto the plantar surface of ipsilateral hindpaw were determined at various times after acute injection of tapentadol (1, 3 or 10 mg/kg, i.p.) or saline. B—On day 15 (D on abscissa) after nerve ligation, rats were treated subchronically with tapentadol (10 mg/kg, i.p., twice daily, at 10:00 AM and 6:00 PM) or saline for four days. On the following day (day 19 after surgery), both tapentadol- and saline-pretreated CCI-SN rats were injected with tapentadol (10 mg/kg, i.p.; 0 on abscissa) and then subjected to von Frey filaments' test applied to ipsilateral hindpaw for determination of pressure threshold values (as g) at various times thereafter.

For `NC1CCN(O)C1=O` (single isomer, unassigned; (+)) [(+)-HA966], the “cephalic neuropathic pain, each drug alone” value ([1]; each drug alone) is listed as “inactive”.
For `CN1CC[C@]23c4c5ccc(O)c4O[C@H]2[C@@H](O)C=C[C@H]3[C@H]1C5` [morphine], the “allodynia/hyperalgesia in the hindpaw” value [2] is listed as “reversed allodynia/hyperalgesia in the hindpaw”, the “maximum increase in pressure threshold value, as % of that in healthy intact rats” value [3] is listed as 20% and the incision-induced hyperalgesia [4] is listed as “does not inhibit incision-induced hyperalgesia; also recorded: hyperalgesia is even maintained”. For the same molecule, the “effect on CCI-SN-induced mechanical allodynia” value [5] was “fully reversed CCI-SN-induced mechanical allodynia; also recorded: allodynia was not completely reversed”, the “persistence of reversal of allodynia” value [5] was “at least one hour” and the “pressure threshold values, either drug alone” value [5] was “only discrete increases in pressure threshold values”. For the same molecule, the “allodynia in the vibrissae territory” value ([1]; rat, in vivo) was “inactive against allodynia in the vibrissae territory” and the “cephalic neuropathic pain, each drug alone” value ([1]; rat, in vivo) was “inactive”.
For `CCOc1ccccc1OC(c1ccccc1)C1CNCCO1` (stereo not shown) [reboxetine], the anti-allodynic effect alone [3] was “completely inactive on its own” and the “pressure threshold values, either drug alone” value [5] was “only discrete increases in pressure threshold values”.
For `NC1=N[C@H](O)[C@H]2[C@H]3O[C@]4(O)O[C@@H]([C@@H](O)[C@@]2(N1)[C@@H]4O)[C@]3(O)CO` [tetrodotoxin], the “allodynia/hyperalgesia in the hindpaw” value [2] is listed as “reversed allodynia/hyperalgesia in the hindpaw” and the “allodynia in the vibrissae territory” value ([1]; rat, in vivo) is listed as “inactive against allodynia in the vibrissae territory”.
